Results as given in patent US20240325398A1, “COMBINATION THERAPIES” (Infinity Pharmaceuticals, Inc., priority 2014, published 2024).

What was measured:
[1] = system: ibrutinib-resistant SU-DHL-4 clones; assay: CTG (Cell Titer Glo) IC50, ibrutinib-resistant clones; assay type: cell-based; details: ibrutinib clones 2B.3, 5C.3, 10B.3, 11D.3, 11G.3
Experimental: (§1) The DMSO stock for each compound was diluted to 5 mM or 1 mM with DMSO. A 1:1000 dilution was performed into the plated cells (10 uL) for a final of 1 uM or 5 uM (final DMSO […]). Cells were counted 2 times per week and cell densities were adjusted back to 2.5×10^5 c/mL as needed. Media/Compound was replenished as needed and Media/Compound was replaced 1× per week. Compound treatment lasted for 28 days. Compound was washed out for 1 week and cells were subsequently used in assays to determine resistance after 4 weeks of treatment.
(§2) The cell line pool was treated with compound for an additional 28 days prior to subcloning. Altogether, the cell line pool was under selective pressure for a total of 8 weeks.
Cell lines were subcloned at 3, 1, and 0.3 cells per well (cpw). 1:10 of conditioned medium (CM) was included in medium in addition to corresponding DMSO control or compound. During subcloning optimization experiments, the SU-DHL-4 cell line could only be subcloned in the presence of 1:10 conditioned medium. Conditioned medium (CM) was collected 4 days after splitting the parent cell line and when cells were approximately 90% confluent. Cells were spun down and the supernatant (CM) was collected down. […]
(§3) All cell lines subcloned grew out. […] Once expanded in a 24 well plate, the 12 clones per cell line were evaluated for viability by flow using the Dead_Live kit (Invitrogen #L23101).

[2] = system: Compound 1-resistant SU-DHL-4 clones; assay: CTG (Cell Titer Glo) IC50, Compound 1-resistant clones; assay type: cell-based; details: Compound 1-resistant clones versus control cells, FIG. 10
Experimental: as §1, §2
Cell lines were subcloned at 3, 1, and 0.3 cells per well (cpw). 1:10 of conditioned medium (CM) was included in medium in addition to corresponding DMSO control or compound. During subcloning optimization experiments, the SU-DHL-4 cell line could only be subcloned in the presence of 1:10 conditioned medium. […]
as §3
Clones for parent, DMSO and Compound 1-R cell lines were selected based on their P1 vs P2 distribution determined by FSCH vs SSCH scatter plot. […]

[3] = system: SU-DHL-6-epst; assay: Combination study of Compound 1 or CAL-101 and a second therapeutic agent (Synergy Score, CI50); assay type: cell-based
[4] = system: Jeko-1; assay: Combination study, ATPLite 72 h, dose matrix (Synergy Score, CI50); details: combination with Compound 1
[5] = system: OCI-Ly3; assay: as above
[6] = as above; details: combination with Compound 1; OPM-2
[7] = system: OMP-2; assay: as above; details: combination with Compound 1; OPM-2
[8] = system: SUDHL6; assay: Combination study of Example 1 (data not shown); assay type: cell-based; details: combination with Compound 1, SUDHL6 cell line
From the text: The method is described as follows.
Additive effect is CI=1.0. […] Antagonistic effect is CI>1.0.

[9] = system: NCI-H929; assay: Combination study, ATPLite 72 h, dose matrix (Synergy Score, CI50); details: combination with Compound 1
[10] = system: GRANTA-519; assay: as above; details: combination with Compound 1
Experimental: Cells are thawed from a liquid nitrogen preserved state. Once cells have been expanded and divide at their expected doubling times, screening begins. Cells are seeded in growth media in either black 1536-well or 384-well tissue culture treated plates. Cells are then equilibrated in assay plates via centrifugation and placed in incubators attached to the Dosing Modules at 37° C. for 24 hours before treatment. […] These Tzero (To) plates are read using ultra-sensitive luminescence on Envision plate readers (Perkin Elmer). Treated assay plates are incubated with compound for 72 hours. After 72 hours, plates are developed for endpoint analysis using ATPLite. All data points are collected via automated processes, quality controlled and analyzed using Zalicus software.
where T is treated cell count and V is untreated (vehicle) cell count (at 72 hours). I ranges from 0% (when T=V) to 100% (when T=0). […] The measure of effect in the experiment can be the inhibition of cellular response relative to the untreated level (vehicle alone). […] The inhibition ranges from 0% at the untreated level to 100% when T=0. Inhibition levels are negative for agents that actually increase levels. Other effect measures, such as an activity ratio r=T/V may be more appropriate for some assays. When activity ratios (e.g, fold increase over stimulated control) are being used, the effect can be measured using an induction 1=ln(T/V). With this definition, all effect expressions are the same as for inhibition.
Growth Inhibition (GI) is used as a measure of cell viability. […] A GI reading of 100% represents complete growth inhibition—T72 compound-treated and T0 vehicle signals are matched. […] A GI reading of 200% represents complete death of all cells in the culture well. Compounds reaching an activity plateau of GI 200% are considered cytotoxic. GI is calculated by applying the following test and equation:
Combination analysis data were collected in a 6×6 dose matrix. Synergy is calculated by comparing a combination's response to those of its single compound, against the drug-with-itself dose-additive reference model. Deviations from dose additivity may be assessed visually on an isobologram or numerically with a Combination Index (CI). […] Additive effect is CI=1.0. […] Antagonistic effect is CI>1.0.
To measure combination effects in excess of Loewe additivity, a scalar measure to characterize the strength of synergistic interaction termed the Synergy Score is devised. The Synergy Score is calculated as:
The fractional inhibition for each component agent and combination point in the matrix is calculated relative to the median of all vehicle-treated control wells. The Synergy Score equation integrates the experimentally-observed activity volume at each point in the matrix in excess of a model surface numerically derived from the activity of the component agents using the Loewe model for additivity. Additional terms in the Synergy Score equation (above) are used to normalize for various dilution factors used for individual agents and to allow for comparison of synergy scores across an entire experiment. The inclusion of positive inhibition gating or an Idata multiplier removes noise near the zero effect level, and biases results for synergistic interactions at that occur at high activity levels.
Loewe Volume (Loewe Vol) is used to assess the overall magnitude of the combination interaction in excess of the Loewe additivity model. Loewe Volume is particularly useful when distinguishing synergistic increases in a phenotypic activity (positive Loewe Volume) versus synergistic antagonisms (negative Loewe Volume). […] This model defines additivity as a non-synergistic combination interaction where the combination dose matrix surface should be indistinguishable from either drug crossed with itself.

[11] = combination with CAL-101, OCT-Ly3, Example 2
[12] = combination with Cmpd 1, OCT-Ly3, Example 2
[13] = combination with Compound 1, OCI-Ly3, 72 h

C[C@H](Nc1ncnc2[nH]cnc12)c1cc2cccc(Cl)c2c(=O)n1-c1ccccc1 [Compound 1, (S)-3-(1-((9H-purin-6-yl)amino)ethyl)-8-chloro-2-phenylisoquinolin-1(2H)-one]
cross-resistance of ibrutinib-resistant clones [1]: no cross-resistance | average IC50 for inhibition of the resistant cells versus control cells [2]: higher | CI50 growth inhibition ([3]; combination with Dexamethasone): T (T=0.5 to <0.7) | CI50 inhibition ([3]; combination with Dexamethasone): T (T=0.5 to <0.7) | Synergy Score growth inhibition ([3]; combination with Dexamethasone): A3 (A3=>3) | Synergy Score inhibition ([3]; combination with Dexamethasone): A2 (A2=1 to <3) | CI50 growth inhibition ([3]; combination with LEE011): S (S=0.01 to <0.5) | Synergy Score growth inhibition ([3]; combination with LEE011): A2 (A2=1 to <3) | Synergy Score inhibition ([3]; combination with LEE011): A1 (A1=0.0001 to <1) | CI50 growth inhibition ([3]; combination with PCI-32765): S (S=0.01 to <0.5) | CI50 inhibition ([3]; combination with PCI-32765): S (S=0.01 to <0.5) | Synergy Score growth inhibition ([3]; combination with PCI-32765): A3 (A3=>3) | Synergy Score inhibition ([3]; combination with PCI-32765): A2 (A2=1 to <3) | CI50 growth inhibition ([3]; combination with PD-0332991): S (S=0.01 to <0.5) | CI50 inhibition ([3]; combination with PD-0332991): S (S=0.01 to <0.5) | Synergy Score growth inhibition ([3]; combination with PD-0332991): A2 (A2=1 to <3) | Synergy Score inhibition ([3]; combination with PD-0332991): A2 (A2=1 to <3)

C[C@@H]1C[C@H]2[C@@H]3CCC4=CC(=O)C=C[C@]4(C)[C@@]3(F)[C@@H](O)C[C@]2(C)[C@@]1(O)C(=O)CO [dexamethasone, (8S,9R,10S,11S,13S,14S,16R,17R)-9-Fluoro-11,17-dihydroxy-17-(2-hydroxyacetyl)-10,13,16-trimethyl-6,7,8,9,10,11,12,13,14,15,16,17-dodecahydro-3H-cyclopenta[a]phenanthren-3-one]
CI50 growth inhibition [4]: U (U=0.7 to <1) | CI50 inhibition [4]: S (S=0.01 to <0.5) | Synergy Score growth inhibition [4]: A3 (A3=>3) | Synergy Score inhibition [4]: A3 (A3=>3) | Synergy Score growth inhibition [5, 11]: A1 (A1=0.0001 to <1) | Synergy Score inhibition [5, 11]: A1 (A1=0.0001 to <1) | CI50 growth inhibition [5, 12]: W (W=≥1) | Synergy Score growth inhibition [5, 12]: A1 (A1=0.0001 to <1) | Synergy Score inhibition [5, 12]: A1 (A1=0.0001 to <1) | CI50 growth inhibition [5, 13]: U (U=0.7 to <1) | Synergy Score growth inhibition [5, 13]: A1 (A1=0.0001 to <1) | Synergy Score inhibition [5, 13]: A1 (A1=0.0001 to <1) | CI50 growth inhibition [6]: S (S=0.01 to <0.5) | CI50 inhibition [7]: U (U=0.7 to <1) | Synergy Score growth inhibition [7]: A2 (A2=1 to <3) | Synergy Score inhibition [7]: A1 (A1=0.0001 to <1) | synergy of the combination [8]: significant synergy | CI50 growth inhibition [9]: S (S=0.01 to <0.5) | CI50 inhibition [9]: U (U=0.7 to <1) | Synergy Score growth inhibition [9]: A3 (A3=>3) | Synergy Score inhibition [9]: A2 (A2=1 to <3) | CI50 growth inhibition [10]: S (S=0.01 to <0.5) | Synergy Score growth inhibition [10]: A3 (A3=>3) | Synergy Score inhibition [10]: A1 (A1=0.0001 to <1)
